Reference: patent publication US6197768A, “Pyridocarbazole derivatives having cgmp-pde inhibitory activity” (Mochida Pharmaceutical Co., Ltd., priority 1996, dated 2001)

Key:
[1] = system: PDE type I; experiment: PDE Inhibiting Activity, type I; format: biochemical, dog (canine aorta); details: PDE type I from canine aorta, 1 μM substrate, pH 7.5; read-out: Inhibition Activity IC50, Type I
Method: (§1) On the basis of the method of Lugnier et al. (Biochem. Pharmacol., 35, 1743-1751, 1986), PDE was purified from the aorta in a dog. The canine aorta was minced and homogenized with a Waring Blender and a glass homogenizer in six volumes of a Tris-HCl buffer solution (pH 7.5, 20 mM) containing 2 mM magnesium acetate, 5 mM ethylenediaminetetraacetic acid (EDTA), 100 μg/mL of phenylmethylsulforyl fluoride and 15 mM 2-mercaptoethanol (2-ME), and centrifuged at 1200 xg for 30 min. The supernatant was separated and salted out with ammonium sulfate which was added to 45% saturation. The resulting precipitated fraction was resuspended in a Tris-HCl buffer solution (pH 7.5, 20 mM) containing 2 mM magnesium acetate and 1 mM 2-ME, dialyzed overnight and applied to a DEAE-trisacryl column (DEAE […] M:IBF). By elution with a sodium chloride gradient (0-0.4 M), PDE types V and III were separated from the other isozymes. The supernatant fraction of 45% saturated ammonium sulfate was further mixed with ammonium sulfate to 65% saturation and salted out. The resulting precipitated fraction was similarly applied to the DEAE-trisacryl column and eluted by a sodium chloride gradient (0-0.4 M) so as to separate PDE type I.
(§2) The thus obtained PDE types V, III and I were measured for their activity in accordance with the method of Thompson et al. (Adv. Cyclic Nucleotide Res., 10, 69-72, 1979) and the method of Wells et al. (Biochim. Biophys. Acta, 384, 430-443, 1975). Specifically, a purified PDE sample was added to 50 mM Tris-HCl buffer solution (pH 7.5) containing 1 μM of substrate cGMP or cAMP (containing tritium-labelled cGMP or cAMP), 1 mM EGTA and 2 mM magnesium acetate. For PDE activity measurement, enzymatically produced 5' GMP or 5' AMP was further hydrolyzed into guanosine or adenosine with snake venom and separated from the substrate by means of an ion-exchange resin (Dowex 1-X2), followed by measuring with a scintillation counter. The activity of each test compound was determined as a percentage of the DPE activity measured when it was added as a dimethyl sulfoxide solution (DMSO) and its IC50 (50% inhibition concentration) was calculated by the probit method. The final concentration of DMSO was adjusted to be no more than 2% in consideration of the effect on PDE activity.

[2] = target: T1, PDE type III (Canis lupus familiaris, UniProt A0A8I3NYE0); experiment: PDE Inhibiting Activity, type III; format: biochemical, dog (canine aorta); details: PDE type III from canine aorta, 1 μM substrate, pH 7.5; read-out: Inhibition Activity IC50, Type III
T1 construct: PDE was purified from the aorta in a dog; from tissue; host or cells: dog aorta
T1 sequence (A0A8I3NYE0 1-1135): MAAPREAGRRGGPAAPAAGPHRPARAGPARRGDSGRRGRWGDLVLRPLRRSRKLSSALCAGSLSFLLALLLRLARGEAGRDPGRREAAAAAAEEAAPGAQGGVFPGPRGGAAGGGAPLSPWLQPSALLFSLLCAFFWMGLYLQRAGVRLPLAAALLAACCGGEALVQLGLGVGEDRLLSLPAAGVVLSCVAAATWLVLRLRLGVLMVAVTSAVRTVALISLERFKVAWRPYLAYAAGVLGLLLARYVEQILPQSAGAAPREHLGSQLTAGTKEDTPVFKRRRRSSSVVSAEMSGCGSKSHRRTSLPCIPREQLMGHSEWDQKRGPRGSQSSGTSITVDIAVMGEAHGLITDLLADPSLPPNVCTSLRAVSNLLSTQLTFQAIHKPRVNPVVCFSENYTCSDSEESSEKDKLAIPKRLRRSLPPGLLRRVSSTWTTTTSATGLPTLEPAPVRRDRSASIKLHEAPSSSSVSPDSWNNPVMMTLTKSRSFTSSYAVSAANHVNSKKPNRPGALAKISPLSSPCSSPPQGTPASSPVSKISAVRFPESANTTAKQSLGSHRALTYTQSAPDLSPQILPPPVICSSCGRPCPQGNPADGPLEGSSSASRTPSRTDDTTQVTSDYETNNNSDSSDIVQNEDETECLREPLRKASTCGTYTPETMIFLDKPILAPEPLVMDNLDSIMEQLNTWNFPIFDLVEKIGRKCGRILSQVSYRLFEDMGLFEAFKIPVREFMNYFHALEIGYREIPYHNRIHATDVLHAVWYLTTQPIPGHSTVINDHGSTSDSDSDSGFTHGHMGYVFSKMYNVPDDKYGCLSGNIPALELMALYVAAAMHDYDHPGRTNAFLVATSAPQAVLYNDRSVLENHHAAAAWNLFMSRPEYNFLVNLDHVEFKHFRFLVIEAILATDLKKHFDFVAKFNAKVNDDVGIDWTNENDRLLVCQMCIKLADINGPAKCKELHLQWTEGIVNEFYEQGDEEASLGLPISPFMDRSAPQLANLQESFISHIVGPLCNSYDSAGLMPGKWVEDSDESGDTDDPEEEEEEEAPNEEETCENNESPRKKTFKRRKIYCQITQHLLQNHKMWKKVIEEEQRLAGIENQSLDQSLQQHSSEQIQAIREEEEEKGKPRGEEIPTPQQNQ
Method: as §1, §2

SMILES | IC50 [1] | IC50 [2]
O=c1c(Cc2cccnc2)cn2c3ccc(Br)cc3c3cc(O)cc1c32 [Example 2, 10-bromo-2-hydroxy-5-(3-pyridylmethyl)-4H-pyrido [3,2,1-jk]carbazole-4-one] | > 30 µM | 3.6 µM
CC(C)OC(=O)COc1cc2c(=O)c(Cc3cccnc3)cn3c4ccc(Br)cc4c(c1)c23 [Example 4, 10-bromo-2-i-propoxycarbonylmethyloxy-5-(3-pyridylmethyl)-4H-pyrido [3,2,1-jk]carbazole-4-one] | > 30 µM | 6.8 µM
CCOC(=O)COc1cc2c(=O)c(Cc3cccnc3)cn3c4ccc(Br)cc4c(c1)c23 [Example 5, 10-bromo-2-ethoxycarbonylmethyloxy-5-(3-pyridylmethyl)-4H-pyrido [3,2,1-jk]carbazole-4-one] | > 30 µM | 19 µM
O=c1c(Cc2cccnc2)cn2c3ccc(Br)cc3c3cc(OCc4cccnc4)cc1c32 [Example 18, 10-bromo-5-(3-pyridylmethyl)-2-(3-pyridylmethyloxy)-4H-pyrido [3,2,1-jk]carbazole-4-one] | > 30 µM | 1.9 µM
O=c1c(Cc2cccnc2)cn2c3ccc(Br)cc3c3cc(OCc4ccccc4)cc1c32 [Example 22, 2-benzyloxy-10-bromo-5-(3-pyridylmethyl)-4H-pyrido [3,2,1-jk]carbazole-4-one] | > 30 µM | 11 µM
COc1cc2c(=O)c(C)cn3c4ccc(Br)cc4c(c1)c23 [Example 48, 10-bromo-2-methoxy-5-methyl-4H-pyrido [3,2,1-jk]carbazole-4-one] | > 100 µM | > 100 µM
Cc1cn2c3ccc(Br)cc3c3cc(O)cc(c1=O)c32 [Example 49, 10-bromo-2-hydroxy-5-methyl-4H-pyrido [3,2,1-jk]carbazole-4-one] | > 300 µM | 198 µM
Cc1cn2c3ccc(Br)cc3c3cc(OCC(=O)OC(C)C)cc(c1=O)c32 [Example 51] | > 30 µM | > 30 µM
CCOC(=O)COc1cc2c(=O)c(C)cn3c4ccc(Br)cc4c(c1)c23 [Example 52, 10-bromo-2-ethoxycarbonylmethyloxy-5-methyl-4H-pyrido [3,2,1-jk]carbazole-4-one] | > 30 µM | > 30 µM
CCCC(=O)COc1cc2c(=O)c(C)cn3c4ccc(Br)cc4c(c1)c23 [Example 57, 10-bromo-2-(2-oxopentyloxy)-5-methyl-4H-pyrido [3,2,1-jk]carbazole-4-one] | > 30 µM | > 30 µM
COc1cc2c(=O)ccn3c4ccc(Br)cc4c(c1)c23 [Example 58, 10-bromo-2-methoxy-4H-pyrido [3,2,1-jk]carbazole-4-one] | > 10 µM | > 10 µM
O=c1ccn2c3ccc(Br)cc3c3cc(O)cc1c32 [Example 59, 10-bromo-2-hydroxy-4H-pyrido [3,2,1-jk]carbazole-4-one] | > 100 µM | > 100 µM
CC(C)OC(=O)COc1cc2c(=O)ccn3c4ccc(Br)cc4c(c1)c23 [Example 61, 10-bromo-2-i-propoxycarbonylmethyloxy-4H-pyrido [3,2,1-jk]carbazole-4-one] | > 30 µM | > 30 µM
CCOC(=O)COc1cc2c(=O)ccn3c4ccc(Br)cc4c(c1)c23 [Example 62, 10-bromo-2-ethoxycarbonylmethyloxy-4H-pyrido [3,2,1-jk]carbazole-4-one] | > 30 µM | > 30 µM
O=C(O)COc1cc2c(=O)ccn3c4ccc(Br)cc4c(c1)c23 [Example 63, 10-bromo-2-carboxymethyloxy-4H-pyrido [3,2,1-jk]carbazole-4-one] | > 30 µM | > 30 µM
O=c1ccn2c3ccc(Br)cc3c3cc(OCc4cccnc4)cc1c32 [Example 64, 10-bromo-2-(3-pyridylmethyloxy)-4H-pyrido [3,2,1-jk]carbazole-4-one] | > 100 µM | 81 µM
O=c1ccn2c3ccc(Br)cc3c3cc(OCc4ccccc4)cc1c32 [Example 66] | > 30 µM | > 30 µM
O=c1ccn2c3ccc(Br)cc3c3cc(OCc4ncon4)cc1c32 [Example 76] | > 30 µM | > 30 µM
CC(=O)Oc1cc2c(=O)ccn3c4ccc(Br)cc4c(c1)c23 [Example 82] | > 100 µM | > 100 µM
CCCC(=O)COc1cc2c(=O)ccn3c4ccc(Br)cc4c(c1)c23 [Example 83, 10-bromo-2-(2-oxopentyloxy)-4H-pyrido [3,2,1-jk]carbazole-4-one] | > 30 µM | > 30 µM
COc1cc2c(=O)c(Cc3cccnc3)cn3c4cc(Br)ccc4c(c1)c23 [Example 101, 9-bromo-2-methoxy-5-(3-pyridylmethyl)-4H-pyrido [3,2,1-jk]carbazole-4-one] | > 30 µM | > 30 µM
CC(C)(C)OC(=O)COc1cc2c(=O)c(Cc3cccnc3)cn3c4cc(Br)ccc4c(c1)c23 [Example 103, 9-bromo-2-t-butoxycarbonyl-methyloxy-5-(3-pyridylmethyl)-4H-pyrido [3,2,1-jk]carbazole-4-one] |  | > 30 µM
O=C(O)COc1cc2c(=O)c(Cc3cccnc3)cn3c4cc(Br)ccc4c(c1)c23 [Example 104, 9-bromo-2-carboxymethyloxy-5-(3-pyridylmethyl)-4H-pyrido [3,2,1-jk]carbazole-4-one] | > 30 µM | 3.5 µM
CC(=O)OCc1cncc(COc2cc3c(=O)c(Cc4cccnc4)cn4c5cc(Br)ccc5c(c2)c34)c1 [Example 106, 2-(5-acetoxymethyl-3-pyridylmethyloxy)-9-bromo-5-(3-pyridylmethyl)-4H-pyrido [3,2,1-jk]carbazole-4-one] | > 30 µM | > 30 µM
O=c1c(Cc2cccnc2)cn2c3cc(Br)ccc3c3cc(OCc4cncc(CO)c4)cc1c32 [Example 107, 9-bromo-2-(5-hydroxymethyl-3-pyridylmethyloxy)-5-(3-pyridylmethyl)-4H-pyrido [3,2,1-jk]carbazole-4-one] | > 30 µM | > 30 µM
COc1cc2c(=O)c(Cc3ccccc3)cn3c4cc(Br)ccc4c(c1)c23 [Example 121, 5-benzyl-9-bromo-2-methoxy-4H-pyrido [3,2,1-jk]carbazole-4-one] | > 30 µM | > 30 µM
O=c1c(Cc2ccccc2)cn2c3cc(Br)ccc3c3cc(O)cc1c32 [Example 122, 5-benzyl-9-bromo-2-hydroxy-4H-pyrido [3,2,1-jk]carbazole-4-one] | > 30 µM | 13 µM
CC(=O)Oc1cc2c(=O)c(Cc3cccnc3)cn3c4ccccc4c(c1)c23 [Example 156] | > 30 µM | 5.6 µM
CC(=O)Oc1ccc2c3cccc4c(=O)c(Cc5cccnc5)cn(c2c1)c43 [Example 226] | > 30 µM | 12 µM
